ChEMBL document CHEMBL3880428, “Sulfonamide derivative having PGD2 receptor antagonistic activity” (2012)

Assays:
Assay type in all cases: cell-based
[1] = system: HEK293; assay: Selectivity ratio of IC50 for PGD2 receptor in human platelets to IC50 for human EP4 receptor expressed in HEK293 cells by cAMP accumulation assay
[2] = system: HEK293; assay: Selectivity ratio of IC50 for PGD2 receptor in human platelets to IC50 for human IP receptor expressed in HEK293 cells by cAMP accumulation assay
[3] = system: HEK293; assay: Selectivity ratio of IC50 for PGD2 receptor in human platelets to IC50 for human TP receptor expressed in HEK293 cells by cAMP accumulation assay
[4] = system: HEK293; assay: Selectivity ratio of IC50 for PGD2 receptor in human platelets to IC50 for human EP1 receptor expressed in HEK293 cells by cAMP accumulation assay
[5] = system: HEK293; assay: Selectivity ratio of IC50 for PGD2 receptor in human platelets to IC50 for human EP3 receptor expressed in HEK293 cells by cAMP accumulation assay
[6] = system: HEK293; assay: Selectivity ratio of IC50 for PGD2 receptor in human platelets to IC50 for human FP receptor expressed in HEK293 cells by cAMP accumulation assay
[7] = system: HEK293; assay: Selectivity ratio of IC50 for PGD2 receptor in human platelets to IC50 for human EP2 receptor expressed in HEK293 cells by cAMP accumulation assay

Measured: Ratio IC50

CC(C)Oc1ccc(S(=O)(=O)N2CCN(c3ccc(Cl)c(/C=C/C(=O)O)c3)CC2)cc1
> 20: all assays above

CC(C)Oc1ccc(S(=O)(=O)N2CCN(c3ccc(C(=O)Nc4nc5ccccc5[nH]4)c(OCC(=O)O)c3)CC2)cc1
> 20: all assays above

CC(C)Oc1ccc(S(=O)(=O)N2CCC(Oc3ccc(Cl)cc3CCC(=O)O)CC2)cc1
> 20: all assays above

CC(C)Oc1ccc(S(=O)(=O)N2CCC(Oc3ccccc3/C=C/C(=O)O)CC2)cc1
> 20: all assays above

CC(C)Oc1ccc(S(=O)(=O)N2CCN(c3cc(OCC(=O)O)cc(C(F)(F)F)c3)CC2)cc1
> 20: all assays above

CC(C)Oc1ccc(S(=O)(=O)N2CCN(c3ccc(Cl)c(OCC(=O)O)c3)CC2)cc1F
> 20: all assays above

COc1cccc(OC2CCN(S(=O)(=O)c3ccc(OC(C)C)cc3)CC2)c1CCC(=O)O
> 20: all assays above

CC(C)Oc1ccc(S(=O)(=O)N2CCN(c3ccc(Br)c(OCC(=O)O)c3)CC2)cc1
> 20: all assays above

CC(C)Oc1ccc(S(=O)(=O)N2CCN(c3ccc(C(=O)NCc4cccs4)c(OCC(=O)O)c3)CC2)cc1
> 20: all assays above

Cc1cc(C(=O)Nc2ccc(N3CCN(S(=O)(=O)c4ccc(OC(C)C)cc4)CC3)cc2OCC(=O)O)no1
> 20: all assays above

CC(C)Oc1ccc(S(=O)(=O)N2CCN(c3cc(F)c(F)c(OCC(=O)O)c3)CC2)cc1
> 20: all assays above

CC(C)Oc1ccc(S(=O)(=O)N2CCN(c3ccc(NC(=O)c4ccccn4)c(OCC(=O)O)c3)CC2)cc1
> 20: all assays above

CC(C)OC(=O)Nc1ccc(N2CCN(S(=O)(=O)c3ccc(OC(C)C)cc3)CC2)cc1OCC(=O)O
> 20: all assays above

CC(C)Oc1ccc(S(=O)(=O)N2CCN(c3ccc(C(N)=O)c(OCC(=O)O)c3)CC2)cc1
> 20: all assays above

CC(C)Oc1ccc(S(=O)(=O)N2CCN(c3ccc(NC(=O)c4ccno4)c(OCC(=O)O)c3)CC2)cc1
> 20: all assays above

CCCNC(=O)c1ccc(N2CCN(S(=O)(=O)c3ccc(OC(C)C)cc3)CC2)cc1OCC(=O)O
> 20: all assays above

CC(C)Oc1ccc(S(=O)(=O)N2CCN(c3ccc(C(=O)NC4CC4)c(OCC(=O)O)c3)CC2)cc1
> 20: all assays above

CC(C)Oc1ccc(S(=O)(=O)N2CCN(c3cc(OCC(=O)O)cc(-c4ccccc4)c3)CC2)cc1
> 20: all assays above

CC(C)Oc1ccc(S(=O)(=O)N2CCC(Oc3ccccc3CCC(=O)O)CC2)cc1
> 20: all assays above

CC(C)Oc1ccc(S(=O)(=O)N2CCN(c3cc(Cl)cc(OCC(=O)O)c3)CC2)cc1
> 20: all assays above

CC(C)Oc1ccc(S(=O)(=O)N2CCN(c3ccc(-c4ccco4)c(OCC(=O)O)c3)CC2)cc1
> 20: all assays above

CC(C)Oc1ccc(S(=O)(=O)N2CCN(c3ccc(-c4nnco4)c(OCC(=O)O)c3)CC2)cc1
> 20: all assays above

Cc1ccc(N2CCN(S(=O)(=O)c3ccc(OC(C)C)cc3)CC2)cc1OCC(=O)O
> 20: all assays above

CC(C)Oc1ccc(S(=O)(=O)N2CCN(c3ccc([N+](=O)[O-])c(OCC(=O)O)c3)CC2)cc1
> 20: all assays above

CC(C)Oc1ccc(S(=O)(=O)N2CCN(c3ccc(-c4nncs4)c(OCC(=O)O)c3)CC2)cc1
> 20: all assays above
